This is an account of results in patent EP0306300B1, “Pyrrolo(1,2-a)imidazole and imidazo(1,2-a)pyridine derivatives and their use as 5-lipoxygenase pathway inhibitors” (SMITHKLINE BEECHAM CORPORATION, priority 1987, dated 1989).

One data set deals with T1, 5-Lipoxygenase (Rattus norvegicus, UniProt P12527).
T1 construct: the supernatant was centrifuged at 100,000 x g for 60 min; host or cells: RBL-1 cells (soluble cell extract, high-speed supernatant)
T1 sequence (P12527 1-673): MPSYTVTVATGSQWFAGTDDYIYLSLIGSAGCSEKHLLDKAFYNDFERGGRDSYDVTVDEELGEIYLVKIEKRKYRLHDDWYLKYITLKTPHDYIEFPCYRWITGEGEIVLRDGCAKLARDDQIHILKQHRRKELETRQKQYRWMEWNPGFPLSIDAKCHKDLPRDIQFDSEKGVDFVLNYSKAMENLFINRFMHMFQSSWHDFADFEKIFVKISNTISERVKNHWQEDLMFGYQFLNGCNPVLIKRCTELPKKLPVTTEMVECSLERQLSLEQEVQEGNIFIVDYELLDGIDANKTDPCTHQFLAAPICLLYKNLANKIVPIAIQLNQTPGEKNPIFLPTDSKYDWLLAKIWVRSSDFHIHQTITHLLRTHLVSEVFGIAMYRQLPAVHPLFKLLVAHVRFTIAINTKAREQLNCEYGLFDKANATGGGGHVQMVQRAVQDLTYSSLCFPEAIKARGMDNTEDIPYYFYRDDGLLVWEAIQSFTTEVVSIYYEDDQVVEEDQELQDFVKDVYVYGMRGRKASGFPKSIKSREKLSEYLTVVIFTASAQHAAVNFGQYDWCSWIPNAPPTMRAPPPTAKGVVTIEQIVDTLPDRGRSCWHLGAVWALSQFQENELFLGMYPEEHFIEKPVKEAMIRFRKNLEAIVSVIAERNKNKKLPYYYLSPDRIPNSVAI
The experiment in a line: Assay of 5-lipoxygenase activity in RBL-1 high speed supernatant. The data set is classed as biochemical. The note with it: read-out: 5-LO IC50. As for the experimental part:
For in vitro experiments, compounds were dissolved at appropriate concentrations in ethanol (final concentration 1.0%) and then diluted to final concentrations using the buffers indicated in the text.
The activities of these enzymes in extracts of RBL-1 cells were assayed using the method of Jakschik and Lee, Nature, 287, 51-52 (1980). RBL-1 cells were obtained from the American Type Culture Collection (#CRL 1378) and were grown at 37°C (5% CO₂ in air) in spinner culture in MEM supplemented with 10% heat inactivated fetal calf serum. Harvested cells were washed with 50 mM sodium phosphate buffer, pH 7.0, containing 1 mM EDTA and 0.1% gelatin, resuspended in fresh buffer (5 x 10⁷ cells/ml) and disrupted by nitrogen cavitation using the Parr bomb at 750 psi for 10 min. The broken cell extract was then centrifuged at 10,000 x g for 20 minutes (min) and the supernatant was centrifuged at 100,000 x g for 60 min. Aliquots (0.25 mls) of the supernatant were preincubated with or without drugs for 10 min, after which 10 ul CaCl₂ (2 mM) was added and the reaction was initiated with 2.5 »l of 2.5 mM arachidonic acid-1-¹⁴C (final concentration was 25 »M; specific activity 20,000 dpm/nmole). After incubation for 5 minutes at 37°C, the reaction was terminated by addition of 2 volumes (0.5 ml) ice cold acetone and the sample was allowed to deproteinize on ice for 10 minutes prior to centrifugation at 1,000 x g for 10 minutes. The deproteinized supernatant was adjusted to pH 3.5 with 2N formic acid and extracted with 2 volumes of ice cold ethyl acetate. The extracted samples were dried under argon, redissolved in ethyl acetate and applied to Whatman LK5D thin layer chromatography (TLC) plates which were developed using the A-9 solvent system [organic phase of ethyl acetate: […]:acetic acid: water (110:50:20:10)] described by Hamberg and Samuelsson, J. Biol. Chem., 241, 257-263 (1966). Arachidonic acid, 5-HETE, LTB₄ and PGD₂ were quantified with a Berthold LB 2832 autoscanner.
Under these conditions, only the 5-lipoxygenase pathway metabolites were detectable. The 5-HETE and di-HETEs were formed at a linear rate, and […] amounts of the arachidonic acid-1-¹⁴C substrate were utilized.

Data set [1] can be described thus: Cytochrome P-450 inhibition (ethoxycoumarin-O-deethylase activity, phenobarbital-induced microsomes). The note with it: rat, liver microsomes. On the technique in general: Microsomes from liver hold many membrane-bound enzymes, among them those of drug oxidation.
For data set [2], the system named is arachidonic acid-induced edema in mice. Description: Arachidonic acid-induced mouse ear inflammation (ear swelling). The data set is classed as in vivo, male Balb/c mice. The settings on record: po; for ED50: mouse, read-out: AAEE(MOUSE ED50 mg/kg (po)). How it is done:
In the tests used to determine activity as 5-lipoxygenase pathway inhibitors, male Balb/c mice (20-28 g), were used. All mice were obtained from Charles River Breeding Laboratories, Kingston, N.Y. Within a single experiment, mice were age matched.
Reagents were employed as follows: Compounds of Formula (I) were each used as the free base. The compounds were homogenized in 0.5% tragacanth. Compounds were administered by […] at the indicated dose in a final volume of 10 ml/kg.
Arachidonic acid in acetone (2 mg/20 »l) was applied to the inner surface of the left ear. The thickness of both ears was then measured with a dial micrometer one hour after treatment, and the data were expressed as the change in thickness (10⁻³ cm) between treated and untreated ears.
Test compounds were given orally in acid/saline at the times indicated in the text prior to the topical application of arachidonic acid.
Dermatol., 82, 367-371 (1984)].

The mark [3] stands for this setting: LTB4 production by RBL-1 high speed supernatant.

Like-named read-outs stand apart in the source and are kept apart here.

Turning to `CSc1ccc(-c2nc3n(c2-c2ccncc2)CCC3)cc1` [Compound 1, 2-(4-Methylthiophenyl)-3-(4-pyridyl)-6,7-dihydro-[5H]-pyrrolo[1,2-a]imidazole], the results for the IC50 (at 5-Lipoxygenase (setting [3]); in data set [1]) were 20 µM and 43.7 µM, respectively. Besides, in data set [2], the ED50 turned out to be 20 mg/kg.

As to `C[S+]([O-])c1ccc(-c2nc3n(c2-c2ccncc2)CCC3)cc1` (centres unmarked) [Compound 2, 2-(4-Methylsulfinylphenyl)-3-(4-pyridyl)-6,7-dihydro-[5H]-pyrrolo[1,2-a]imidazole], the IC50 (as a rule, the concentration that inhibits the measured activity by half) on 5-Lipoxygenase (setting [3]) was > 100 µM; at 5-Lipoxygenase (total HETE and Di-HETE production by RBL-1 high speed supernatant), > 100 µM; in data set [1] it was 866 µM. Further, in data set [2] (Mus musculus, 1 h, 50 mg/kg p.o., ear thickness one hour after 2 mg arachidonic acid), the inhibition (in general, the share of the control response that was lost under treatment) at 50 mg/kg was 44%. The ED50 in data set [2] stood at 44 mg/kg.
